# Values of other authors as cited in PubChem BioAssay AID1259409 (Chemical Carcinogenesis Research Information System (CCRIS), 2018).
# Test system: rodent chemically induced tumor inhibition, incidence and multiplicity
# Test: CCRIS tumor inhibitor studies
smiles,measurement,setting,value
Cn1c(=O)c2c(ncn2C)n(C)c1=O,"tumour outcome (control, treated, inhibition, significance)","Carcinogen: DIETHYLNITROSAMINE, 55-18-5, Dose [Inhibitor]: 0, 600 MG/L IN DRINKING WATER BEGINNING 3 D PRIOR TO FIRST CARCINOGEN DOSE AND CONTINUING TO 14 D POST LAST CARCINOGEN D, Route [Inhibitor]: ORAL, Species: RAT, Strain/Sex: BD6/FEMALE, Target Tissue: Type of Lesion: ESOPHAGUS: TUMOR, Dose [Carcinogen]: 80 MG/KG BW 1/WK FOR 7 WK, Promoter: NONE USED","25%, 11%, 56%, not significant"
same,"tumour outcome (control, treated, inhibition, significance)","Carcinogen: DIETHYLNITROSAMINE, 55-18-5, Dose [Inhibitor]: 0, 600 MG/L IN DRINKING WATER BEGINNING 3 D PRIOR TO FIRST CARCINOGEN DOSE AND CONTINUING TO 14 D POST LAST CARCINOGEN D, Route [Inhibitor]: ORAL, Species: RAT, Strain/Sex: BD6/FEMALE, Target Tissue: Type of Lesion: ESOPHAGUS: TUMOR, Dose [Carcinogen]: 80 MG/KG BW 1/WK FOR 8 WK, Promoter: NONE USED","18%, 22%, -22%, not significant"
same,"tumour outcome (control, treated, inhibition, significance)","Carcinogen: DIETHYLNITROSAMINE, 55-18-5, Dose [Inhibitor]: 0, 600 MG/L IN DRINKING WATER BEGINNING 3 D PRIOR TO FIRST CARCINOGEN DOSE AND CONTINUING TO 14 D POST LAST CARCINOGEN D, Route [Inhibitor]: ORAL, Species: RAT, Strain/Sex: BD6/FEMALE, Target Tissue: Type of Lesion: LIVER: TUMOR, Dose [Carcinogen]: 80 MG/KG BW 1/WK FOR 7 WK, Promoter: NONE USED","64%, 56%, 13%, not significant"
same,"tumour outcome (control, treated, inhibition, significance)","Carcinogen: DIETHYLNITROSAMINE, 55-18-5, Dose [Inhibitor]: 0, 600 MG/L IN DRINKING WATER FOR DURATION OF STUDY BEGINNING 4 D POST CARCINOGEN TREATMENT (STUDY DURATION: 6 MO), Route [Inhibitor]: ORAL, Species: RAT, Strain/Sex: BD6/FEMALE, Target Tissue: Type of Lesion: LIVER: TUMOR, Dose [Carcinogen]: 80 MG/KG BW 1/WK FOR 9 WK, Promoter: NONE USED","100%, 100%, 0%, not significant"
same,"tumour outcome (control, treated, inhibition, significance)","Carcinogen: DIETHYLNITROSAMINE, 55-18-5, Dose [Inhibitor]: 0, 600 MG/L IN DRINKING WATER FOR DURATION OF STUDY BEGINNING 4 D POST CARCINOGEN TREATMENT(STUDY DURATION: 6 MO), Route [Inhibitor]: ORAL, Species: RAT, Strain/Sex: BD6/FEMALE, Target Tissue: Type of Lesion: ESOPHAGUS: TUMOR, Dose [Carcinogen]: 80 MG/KG BW 1/WK FOR 9 WK, Promoter: NONE USED","29%, 21%, 28%, not significant"
same,"tumour outcome (control, treated, inhibition, significance)","Carcinogen: DIETHYLNITROSAMINE, 55-18-5, Dose [Inhibitor]: 0, 600 MG/L IN DRINKING WATER FOR DURATION OF STUDY BEGINNING 7 D PRIOR TO CARCINOGEN TREATMENT (STUDY DURATION: 6 MO), Route [Inhibitor]: ORAL, Species: RAT, Strain/Sex: BD6/FEMALE, Target Tissue: Type of Lesion: ESOPHAGUS: TUMOR, Dose [Carcinogen]: 80 MG/KG BW 1/WK FOR 5 WK, Promoter: NONE USED","6%, 11%, -83%, not significant"
same,"tumour outcome (control, treated, inhibition, significance)","Carcinogen: DIETHYLNITROSAMINE, 55-18-5, Dose [Inhibitor]: 0, 600 MG/L IN DRINKING WATER FOR DURATION OF STUDY BEGINNING 7 D PRIOR TO CARCINOGEN TREATMENT (STUDY DURATION: 6 MO), Route [Inhibitor]: ORAL, Species: RAT, Strain/Sex: BD6/FEMALE, Target Tissue: Type of Lesion: LIVER: TUMOR, Dose [Carcinogen]: 80 MG/KG BW 1/WK FOR 5 WK, Promoter: NONE USED","44%, 41%, 7%, not significant"
same,"tumour outcome (control, treated, inhibition, significance)","Carcinogen: DIETHYNITROSAMINE, 55-18-5, Dose [Inhibitor]: 0, 600 MG/L IN DRINKING WATER BEGINNING 3 D PRIOR TO FIRST CARCINOGEN DOSE AND CONTINUING TO 14 D POST LAST CARCINOGEN D, Route [Inhibitor]: ORAL, Species: RAT, Strain/Sex: BD6/FEMALE, Target Tissue: Type of Lesion: LIVER: TUMOR, Dose [Carcinogen]: 80 MG/KG BW 1/WK FOR 8 WK, Promoter: NONE USED","82%, 72%, 12%, not significant"
same,"tumour outcome (control, treated, inhibition, significance)","Carcinogen: N,N-DIETHYLNITROSAMINE, 55-18-5, Dose [Inhibitor]: 600 MG/L IN DRINKING WATER DAILY STARTING 3 D BEFORE START OF CARCINOGEN INJECTION AND CONTINUING UNTIL 2 WK AFTER LAST, Route [Inhibitor]: ORAL, Species: RAT, Strain/Sex: BDIV AND WISTAR/MALE, Target Tissue: Type of Lesion: LIVER: TUMOR, Dose [Carcinogen]: 80 MG/KG BW IN 0.2 ML 0.9% SALINE 1/WK FOR 10 WK, Promoter: NONE USED","18/22 (82%), 12/18 (67%), 18%, not calculated"
same,"tumour outcome (control, treated, inhibition, significance)","Carcinogen: N-METHYL-N'-NITRO-N-NITROSOGUANIDINE, 70-25-7, Dose [Inhibitor]: 0, 0.25% IN DRINKING WATER FOR 32 WK BEGINNING POST CARCINOGEN TREATMENT (STUDY DURATION: 40 WK), Route [Inhibitor]: ORAL, Species: RAT, Strain/Sex: WISTAR/MALE, Target Tissue: Type of Lesion: GLANDULAR STOMACH (PYLORUS): ADENOCARCINOMA, Dose [Carcinogen]: 100 PPM IN DRINKING WATER FOR 8 WK, Promoter: SODIUM CHLORIDE, 7647-14-5","4/29 (14%), 0/28 (0%), 100%, p<0.05"
same,"tumour outcome (control, treated, inhibition, significance)","Carcinogen: N-METHYL-N-NITROSOUREA, 684-93-5, Dose [Inhibitor]: 0, 500 MG/L IN DRINKING WATER BEGINNING AT 60 D OF AGE AND CONTINUING FOR DURATION OF STUDY (STUDY DURATION: 26 WK), Route [Inhibitor]: ORAL, Species: RAT, Strain/Sex: SPRAGUE-DAWLEY/FEMALE, Target Tissue: Type of Lesion: MAMMARY GLAND: CARCINOMA, Dose [Carcinogen]: 2.5 MG/100 G BW ONCE AT 57 D OF AGE, Promoter: NONE USED","34/40 (85%), 31/40 (78%), 8%, not significant"
same,"tumour outcome (control, treated, inhibition, significance)","Carcinogen: N-METHYL-N-NITROSOUREA, 684-93-5, Dose [Inhibitor]: 0, 500 UG/L IN DRINKING WATER BEGINNING AT 29 D OF AGE AND CONTINUING TO D 60 OF AGE (STUDY DURATION: 30 WK), Route [Inhibitor]: ORAL, Species: RAT, Strain/Sex: SPRAGUE-DAWLEY, Target Tissue: Type of Lesion: MAMMARY GLAND: CARCINOMA, Dose [Carcinogen]: 2.5 MG/100 G BW ONCE AT 57 D OF AGE, Promoter: NONE USED","34/40 (85%), 32/40 (80%), 6%, not significant"
same,"tumour outcome (control, treated, inhibition, significance)","Carcinogen: SUBCUTANEOUS, Dose [Inhibitor]: 4-(METHYLNITROSAMINO)-1-(3-PYRIDYL-1-BUTANONE), 64091-91-4, Route [Inhibitor]: 0, 680 PPM IN DRINKING WATER FOR 22 WK BEGINNING 1 WK PRIOR TO CARCINOGEN TREATMENT (STUDY DURATION: 101 WK), Species: RAT, Strain/Sex: ORAL, Target Tissue: Type of Lesion: LIVER :TUMOR, Dose [Carcinogen]: NONE USED","11/32 (34%), 8/20 (40%), -18%, not significant"
same,"tumour outcome (control, treated, inhibition, significance)","Carcinogen: URETHANE, 51-79-6, Dose [Inhibitor]: 0.05 UMOL/G BW GIVEN AT 6 HR INTERVALS DURING THE PERIOD OF 0 TO 36 HR AFTER CARCINOGEN TREATMENT FOR 7 INJECTIONS FOLLO, Route [Inhibitor]: INTRAPERITONEAL, Species: MOUSE, Strain/Sex: ICR/FEMALE, Target Tissue: Type of Lesion: LUNG: PAPILLARY ADENOMA, Dose [Carcinogen]: 0.1 MG/G BW SINGLE INJECTION, Promoter: NONE USED","31/59 (53%), 7/32 (22%), 58%, p<0.01"
